Data as given in ChEMBL document CHEMBL5052818, “Aminopyrimidine derivatives as ctps1 inhibitors” (2019).

assay: Inhibition of C-terminal FLAG-His-tagged full length human CTPS1 measured after 60 mins by ADP-Glo assay

`CC(C)Oc1cncc(-c2ccc(NC(=O)C(C)(C)c3ccnc(NS(C)(=O)=O)n3)c(F)c2)n1` and `CC(C)Oc1cncc(-c2ccc(NC(=O)C(C)(C)c3ccnc(NS(C)(=O)=O)n3)c(F)c2)c1` cannot be ordered by IC50: > 0.1 µM for the first, > 1 µM for the second.

`CCC(C(=O)Nc1ccc(-c2cncc(OC)n2)cc1F)c1ccnc(NS(=O)(=O)C2CC2)n1` (centres undefined) and `CCOc1cncc(-c2ccc(NC(=O)C(CC)c3ccnc(NS(=O)(=O)C4CC4)n3)c(F)c2)n1` (centres undefined) cannot be ordered by IC50: ≤ 0.1 µM for the first, ≤ 0.1 µM for the second.

`CCC(C(=O)Nc1ccc(-c2cncc(OCC(F)(F)F)n2)cc1)c1ccnc(NS(=O)(=O)C2CC2)n1` (centres undefined) and `CCC(C(=O)Nc1ccc(-c2cncc(C(F)(F)F)n2)cc1)c1ccnc(NS(=O)(=O)C2CC2)n1` (centres undefined) cannot be ordered by IC50: ≤ 0.1 µM for the first, > 0.1 µM for the second.

`CCOc1cncc(-c2ccc(NC(=O)C(C)(C)c3ccnc(NS(=O)(=O)CC)n3)cc2)n1` and `CCOc1cncc(-c2ccc(NC(=O)C(C)(C)c3ccnc(NS(C)(=O)=O)n3)cc2)n1` cannot be ordered by IC50: > 0.1 µM for the first, ≤ 0.1 µM for the second.

Compared with `CCOc1cccc(-c2ccc(NC(=O)C(C)(C)c3ccnc(NS(=O)(=O)C4CC4)n3)cc2)c1`, `CCOc1cncc(-c2ccc(NC(=O)C(C)(C)c3ccnc(NS(=O)(=O)C4CC4)n3)cc2)n1` is lower in IC50: > 10 µM for the first, ≤ 0.1 µM for the second.

`CCOc1cncc(-c2ccc(NC(=O)C(C)(C)c3ccnc(NS(=O)(=O)CC)n3)c(F)c2)n1` and `CCOc1cncc(-c2cnc(NC(=O)C(C)(C)c3ccnc(NS(C)(=O)=O)n3)c(F)c2)n1` cannot be ordered by IC50: > 0.1 µM for the first, > 0.1 µM for the second.

`CCOc1cncc(-c2ccc(NC(=O)C3(c4ccnc(NS(=O)(=O)C5CC5)n4)CC3)cc2)n1` and `CCOc1cncc(-c2ccc(NC(=O)C(CC)c3ccnc(NS(=O)(=O)C4CC4)n3)cc2)n1` (centres undefined) cannot be ordered by IC50: ≤ 0.1 µM for the first, ≤ 0.1 µM for the second.

`CCOc1cncc(-c2ccc(NC(=O)C(C)(C)c3nc(NS(=O)(=O)C4CC4)ncc3F)cc2)n1` and `CCOc1cncc(-c2ccc(NC(=O)C(C)(C)c3nc(NS(=O)(=O)C4CC4)ncc3C)cc2)n1` cannot be ordered by IC50: > 0.1 µM for the first, > 1 µM for the second.

`CCC(C(=O)Nc1ccc(-c2cncc(C(F)(F)F)n2)cn1)c1ccnc(NS(=O)(=O)C2CC2)n1` (centres undefined) and `CCC(C(=O)Nc1ccc(-c2cncc(C(F)(F)F)n2)cc1F)c1ccnc(NS(=O)(=O)C2CC2)n1` (centres undefined) cannot be ordered by IC50: ≤ 0.1 µM for the first, ≤ 0.1 µM for the second.

`CCC(C(=O)Nc1ccc(-c2cncc(Cl)n2)cc1)c1ccnc(NS(=O)(=O)C2CC2)n1` (centres undefined) and `CCC(C(=O)Nc1ccc(-c2cncc(OC)n2)cc1)c1ccnc(NS(=O)(=O)C2CC2)n1` (centres undefined) cannot be ordered by IC50: > 0.1 µM for the first, ≤ 0.1 µM for the second.

`CCC(C(=O)Nc1ccc(-c2cncc(OCC(F)(F)F)c2)cc1F)c1ccnc(NS(=O)(=O)C2CC2)n1` (centres undefined) and `CCC(C(=O)Nc1ccc(-c2cncc(OCC(F)(F)F)n2)cc1F)c1ccnc(NS(=O)(=O)C2CC2)n1` (centres undefined) cannot be ordered by IC50: > 0.1 µM for the first, ≤ 0.1 µM for the second.

`CCOc1cncc(-c2ccc(NC(=O)C(CCOC)c3ccnc(NS(=O)(=O)C4CC4)n3)cc2)n1` (centres undefined) and `CCC(C(=O)Nc1ccc(-c2cncc(OC(C)C)n2)cc1)c1ccnc(NS(=O)(=O)C2CC2)n1` (centres undefined) cannot be ordered by IC50: ≤ 0.1 µM for the first, ≤ 0.1 µM for the second.

`CCC(C(=O)Nc1ccc(-c2cccnc2)cn1)c1ccnc(NS(=O)(=O)C2CC2)n1` (centres undefined) and `CCC(C(=O)Nc1ccc(-c2cccnc2)cc1)c1ccnc(NS(=O)(=O)C2CC2)n1` (centres undefined) cannot be ordered by IC50: > 1 µM for the first, > 0.1 µM for the second.

`CC(C(=O)Nc1ccc(-c2cccnc2)cc1)c1ccnc(NS(=O)(=O)C2CC2)n1` (centres undefined) and `CCC(C(=O)Nc1ccc(-c2cnccn2)cc1)c1ccnc(NS(=O)(=O)C2CC2)n1` (centres undefined) cannot be ordered by IC50: > 0.1 µM for the first, > 0.1 µM for the second.

`Cc1cc(-c2cncc(C(F)(F)F)n2)ccc1NC(=O)C(C)(C)c1ccnc(NS(C)(=O)=O)n1` and `CC(C)(C(=O)Nc1ccc(-c2cncc(C(F)(F)F)n2)cc1)c1ccnc(NS(C)(=O)=O)n1` cannot be ordered by IC50: > 0.1 µM for the first, > 0.1 µM for the second.

`CC(C)Oc1cncc(-c2ccc(NC(=O)C(C)(C)c3ccnc(NS(=O)(=O)C4CC4)n3)cc2)n1` and `CC(C)(C(=O)Nc1ccc(-c2cncc(OC3CC3)n2)cc1)c1ccnc(NS(=O)(=O)C2CC2)n1` cannot be ordered by IC50: ≤ 0.1 µM for the first, > 0.1 µM for the second.

`CC(C)(C(=O)Nc1ccc(-c2cncc(C(F)(F)F)n2)cc1)c1ccnc(NS(=O)(=O)C2CC2)n1` and `CCS(=O)(=O)Nc1nccc(C(C)(C)C(=O)Nc2ccc(-c3cncc(C(F)(F)F)n3)cc2)n1` cannot be ordered by IC50: ≤ 0.1 µM for the first, > 0.1 µM for the second.

`CCOc1cncc(-c2ccc(NC(=O)C(CC)c3ccnc(NS(=O)(=O)C4CC4)n3)nc2)n1` (centres undefined) and `CCC(C(=O)Nc1ccc(-c2cncc(OC(C)C)n2)cn1)c1ccnc(NS(=O)(=O)C2CC2)n1` (centres undefined) cannot be ordered by IC50: ≤ 0.1 µM for the first, ≤ 0.1 µM for the second.

`CCC(C(=O)Nc1ccc(-c2cncc(OCC(F)(F)F)c2)cc1)c1ccnc(NS(=O)(=O)C2CC2)n1` (centres undefined) and `CCC(C(=O)Nc1ccc(-c2cncc(OCC(F)(F)F)c2)cn1)c1ccnc(NS(=O)(=O)C2CC2)n1` (centres undefined) cannot be ordered by IC50: > 0.1 µM for the first, > 0.1 µM for the second.

`CCC(C(=O)Nc1ccc(-c2cncc(C(F)(F)F)c2)cn1)c1ccnc(NS(=O)(=O)C2CC2)n1` (centres undefined) and `CCC(C(=O)Nc1ccc(-c2cncc(Cl)c2)cc1F)c1ccnc(NS(=O)(=O)C2CC2)n1` (centres undefined) cannot be ordered by IC50: > 0.1 µM for the first, > 0.1 µM for the second.

`CCC(C(=O)Nc1ccc(-c2cccnc2)cc1F)c1ccnc(NS(=O)(=O)C2CC2)n1` (centres undefined) and `CCC(C(=O)Nc1ccc(-c2cncc(OC(C)C)c2)cc1F)c1ccnc(NS(=O)(=O)C2CC2)n1` (centres undefined) cannot be ordered by IC50: > 1 µM for the first, > 0.1 µM for the second.

`CCC(C(=O)Nc1ccc(-c2cncc(C#N)c2)cc1)c1ccnc(NS(=O)(=O)C2CC2)n1` (centres undefined) and `CCC(C(=O)Nc1ccc(-c2cncc(OC(C)C)c2)cc1)c1ccnc(NS(=O)(=O)C2CC2)n1` (centres undefined) cannot be ordered by IC50: > 0.1 µM for the first, > 0.1 µM for the second.

`CC(C)(C(=O)Nc1ccc(-c2cnccn2)cc1)c1ccnc(NS(=O)(=O)C2CC2)n1` and `CCOc1cncc(-c2ccc(NC(=O)C(C)(C)c3ccnc(NS(=O)(=O)C4(C)CC4)n3)cc2)n1` cannot be ordered by IC50: > 1 µM for the first, > 0.1 µM for the second.

`CCOc1cncc(-c2ccc(NC(=O)C(C)(C)c3ccnc(NS(=O)(=O)C(C)(C)C)n3)cc2)n1` and `CCOc1cncc(-c2ccc(NC(=O)C(C)(C)c3ccnc(NS(C)(=O)=O)n3)nc2)n1` cannot be ordered by IC50: > 1 µM for the first, > 0.1 µM for the second.

With `CCC(C(=O)Nc1ccc(-c2cncc(OC(C)C)n2)cc1F)c1ccnc(NS(=O)(=O)C2CC2)n1` (centres undefined) the IC50 was ≤ 0.1 µM.
